From US10590086B2, “Pharmaceutical compound” (IOmet Pharma Ltd., priority 2014, dated 2020)

Columns and labels:
TDO [1] = biological target: T1, TDO (Homo sapiens, UniProt P48775); experiment: hTDO biochemical coupled assay; conditions: 330 μM L-tryptophan, read-out: hTDO biochemical assay pIC50 (converted)
IDO [2] = biological target: T2, IDO (Homo sapiens, UniProt P14902); experiment: hIDO biochemical coupled assay; conditions: 45 μM L-tryptophan, read-out: hIDO biochemical assay pIC50 (converted)
IDO [3] = biological target: T2, IDO; experiment: SKOV3 kynurenine cell-based assay (IDO induced by IFN-γ); design: IDO expression was induced in the SKOV3 cells by the addition of 500 ng/ml IFN-γ; endogenous in cells; host or cells: SKOV3 (human ovarian adenocarcinoma), induced with IFN-γ; conditions: 48 hours, read-out: SKOV3 Kynurenine cell based assay pIC50 (converted)
In short: (§1)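 Kynurenine in the culture supernatant was measured by absorbance at 490 nm after 5 minutes with Ehrlich's reagent. Cells had been exposed ±compound for 48 hours at 37 °C in phenol red-free RPMI, 10% FCS, 2 mM L-glutamine and 500 μM L-tryptophan. Seeding was 30,000/well for A172 (TDO) and 40,000/well for SKOV3 (IDO, induced with 500 ng/ml IFN-γ).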

TDO [4] = biological target: T1, TDO; experiment: A172 kynurenine cell-based assay; design: This assay utilised cancer cells which expressed either TDO or IDO; endogenous in cells; host or cells: A172 (human glioblastoma); conditions: A172 human glioblastoma cells, 48 hours, read-out: A172 Kynurenine cell based assay pIC50 (converted)
In short: as §1

[5] = SKOV3 human ovarian adenocarcinoma cells, 500 ng/ml IFN-γ, 500 μM L-tryptophan
[6] = SKOV3 cells, IDO induced by 500 ng/ml IFN-γ

T2 sequence (P14902 whole entry): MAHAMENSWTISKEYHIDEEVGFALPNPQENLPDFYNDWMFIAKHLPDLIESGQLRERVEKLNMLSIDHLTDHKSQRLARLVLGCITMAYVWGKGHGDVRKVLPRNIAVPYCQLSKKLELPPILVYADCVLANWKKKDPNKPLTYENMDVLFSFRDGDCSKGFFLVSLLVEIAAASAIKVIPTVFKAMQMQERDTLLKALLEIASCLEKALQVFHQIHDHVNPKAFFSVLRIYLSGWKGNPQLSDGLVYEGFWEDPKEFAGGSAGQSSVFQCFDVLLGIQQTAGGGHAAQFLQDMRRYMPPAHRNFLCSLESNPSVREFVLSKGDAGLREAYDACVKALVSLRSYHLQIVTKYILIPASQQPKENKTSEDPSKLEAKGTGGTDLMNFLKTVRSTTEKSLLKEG
T1 sequence (P48775 whole entry): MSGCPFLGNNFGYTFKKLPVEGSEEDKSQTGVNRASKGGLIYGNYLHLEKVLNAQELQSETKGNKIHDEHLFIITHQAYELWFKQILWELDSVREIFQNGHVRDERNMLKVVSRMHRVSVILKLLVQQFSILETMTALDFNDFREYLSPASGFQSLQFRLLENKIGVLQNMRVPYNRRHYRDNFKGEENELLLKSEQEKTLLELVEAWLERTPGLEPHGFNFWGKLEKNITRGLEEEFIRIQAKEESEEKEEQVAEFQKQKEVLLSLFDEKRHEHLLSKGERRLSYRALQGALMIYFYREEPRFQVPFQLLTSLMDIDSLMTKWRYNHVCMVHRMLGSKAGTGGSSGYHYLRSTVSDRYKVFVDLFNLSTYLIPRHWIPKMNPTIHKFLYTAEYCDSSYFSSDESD

Compound | IC50 (TDO [1]; 17 minutes, room temperature) [µM] | IC50 (IDO [2]; 17 minutes, room temperature) [µM] | IC50 (IDO [3]; [5]) [µM] | IC50 (TDO [4]; 500 μM L-tryptophan) [µM] | IC50 (TDO [1]) [µM] | IC50 (IDO [2]) [µM] | IC50 (IDO [3]; [6]) [µM] | IC50 (TDO [4]) [µM]
CN(C)CCN1C(=O)NC2(CCN(c3cc(Cl)cc4[nH]ncc34)CC2)C1=O [Compound 392] | < 3.16 | < 3.16 | < 3.16 | < 3.16 |  |  |  | 
O=C1N[C@H]2CC[C@@H]1CN(c1cc(Cl)cc3[nH]ncc13)C2 [Compound 393, (1R,5S)-3-(6-chloro-1H-indazol-4-yl)-3,6-diazabicyclo[3.2.2]nonan-7-one] | < 3.16 | 32.4 to 100 | 32.4 to 100 | < 3.16 | 0.245 | 51.3 | 38 | 0.055
O=C1CCC2(CCN1)CCN(c1cc(Cl)cc3[nH]ncc13)CC2 [Compound 394] | < 3.16 | 3.24 to 31.6 | < 3.16 | < 3.16 |  |  |  | 
CS(=O)(=O)N1CC2(CN(c3cc(Cl)cc4[nH]ncc34)C2)C1 [Compound 395] | < 3.16 | > 100 | < 3.16 | < 3.16 |  |  |  | 
CC(C)Cn1cc(-c2cc(Cl)cc3[nH]ncc23)cn1 [Compound 396, 6-chloro-4-(1-isobutyl-1H-pyrazol-4-yl)-1H-indazole] | 3.24 to 31.6 | > 100 | > 100 | < 3.16 | 3.63 | > 257 | > 10 | 0.832
O=C1NCNC12CCN(c1cc(Cl)cc3[nH]ncc13)CC2 [Compound 397] | < 3.16 | > 100 | > 100 | < 3.16 |  |  |  | 
CS(=O)(=O)N1CCOC2(CCN(c3cc(Cl)cc4[nH]ncc34)CC2)C1 [Compound 398] | < 3.16 | > 100 | > 100 | < 3.16 |  |  |  | 
Clc1cc(-c2cnn(-c3ccccc3)c2)c2cn[nH]c2c1 [Compound 399] | > 100 | > 100 | > 100 | < 3.16 |  |  |  | 
CC(=O)N1CCC(c2cc(Cl)cc3[nH]ncc23)CC1(C)C (stereo not shown) [Compound 400] | < 3.16 | < 3.16 | < 3.16 | < 3.16 |  |  |  | 
CNC(=O)CN1CCC(c2cc(Cl)cc3[nH]ncc23)CC1 [Compound 401] | < 3.16 | > 100 | > 100 | < 3.16 |  |  |  | 
CC(=O)N1CC2(C1)CN(c1cc(Cl)cc3[nH]ncc13)C2 [Compound 402] | < 3.16 | 32.4 to 100 | < 3.16 | < 3.16 |  |  |  | 
CS(=O)(=O)NCCN1CCN(c2cc(Cl)cc3[nH]ncc23)CC1 [Compound 403] | < 3.16 | > 100 | > 100 | < 3.16 |  |  |  | 
O=C1Nc2ccccc2NC12CCN(c1cc(Cl)cc3[nH]ncc13)CC2 [Compound 404] | < 3.16 | 32.4 to 100 | < 3.16 | 3.24 to 31.6 |  |  |  | 
O=C1NC2(CCN(c3cc(Cl)cc4[nH]ncc34)CC2)C(=O)N1CC(F)(F)F [Compound 405] | < 3.16 | < 3.16 | < 3.16 | < 3.16 |  |  |  | 
O=C1NC2(CCN(c3cc(Br)cc4[nH]ncc34)CC2)C(=O)N1Cc1ccccc1 [Compound 406] | < 3.16 | < 3.16 | < 3.16 | < 3.16 |  |  |  | 
O=C1NC2(CCN(c3cc(Cl)cc4[nH]ncc34)CC2)C(=O)N1Cc1ncco1 [Compound 407] | < 3.16 | < 3.16 | < 3.16 | < 3.16 |  |  |  | 
Cn1ccnc1CN1C(=O)NC2(CCN(c3cc(Cl)cc4[nH]ncc34)CC2)C1=O [Compound 408] | < 3.16 | < 3.16 | < 3.16 | < 3.16 |  |  |  | 
CC(=O)N1CCOC2(CCN(c3cc(Cl)cc4[nH]ncc34)CC2)C1 [Compound 409] | < 3.16 | 32.4 to 100 | > 100 | 3.24 to 31.6 |  |  |  | 
O=C1NCCN1C1CCN(c2cc(Cl)cc3[nH]ncc23)CC1 [Compound 410] | < 3.16 | > 100 | 3.24 to 31.6 | < 3.16 |  |  |  | 
CN1CCN(C2CCN(c3cc(Cl)cc4[nH]ncc34)CC2)C1=O [Compound 411] | < 3.16 | > 100 | < 3.16 | < 3.16 |  |  |  | 
CC(=O)NCCN1C(=O)NC2(CCN(c3cc(Cl)cc4[nH]ncc34)CC2)C1=O [Compound 412] | < 3.16 | < 3.16 | > 100 | < 3.16 |  |  |  | 
CNC(=O)CN1CCN(c2cc(Cl)cc3[nH]ncc23)CC1(C)C [Compound 413] | < 3.16 | < 3.16 | 3.24 to 31.6 | < 3.16 |  |  |  | 

Compound | IC50 (TDO [1]; 17 minutes, room temperature) [µM] | IC50 (IDO [2]; 17 minutes, room temperature) [µM] | IC50 (IDO [3]; [5]) [µM] | IC50 (TDO [4]; 500 μM L-tryptophan) [µM] | IC50 (TDO [1]) [µM] | IC50 (IDO [2]) [µM] | IC50 (IDO [3]; [6]) [µM] | IC50 (TDO [4]) [µM]
COC(=O)CN1CCN(c2cc(Cl)cc3[nH]ncc23)CC1(C)C [Compound 414] | < 3.16 | 32.4 to 100 | > 100 | < 3.16 |  |  |  | 
CS(=O)(=O)NCCN1C(=O)NC2(CCN(c3cc(Cl)cc4[nH]ncc34)CC2)C1=O [Compound 416] | < 3.16 | < 3.16 | 3.24 to 31.6 | < 3.16 |  |  |  | 
Clc1cc(N2CCc3cn[nH]c3C2)c2cn[nH]c2c1 [Compound 417] | < 3.16 | > 100 | > 100 | < 3.16 |  |  |  | 
O[C@H]1CCCC[C@@H]1c1cc(Cl)cc2[nH]ncc12 [Compound 418] | < 3.16 | > 100 | > 100 | < 3.16 |  |  |  | 
O[C@@H]1CCCC[C@@H]1c1cc(Cl)cc2[nH]ncc12 [Compound 419] | < 3.16 | > 100 | > 100 | < 3.16 |  |  |  | 
CC1(C)CN(c2cc(Cl)cc3[nH]ncc23)CCN1CCNS(C)(=O)=O [Compound 420] | < 3.16 | 3.24 to 31.6 | > 100 | < 3.16 |  |  |  | 
CC(=O)NCCN1CCN(c2cc(Cl)cc3[nH]ncc23)CC1(C)C [Compound 421] | < 3.16 | 3.24 to 31.6 | > 100 | < 3.16 |  |  |  | 
O=C1N(c2ccccc2)CNC12CCN(c1cc(Cl)cc3[nH]ncc13)CC2 [Compound 422] | < 3.16 | 3.24 to 31.6 | < 3.16 | < 3.16 |  |  |  | 
CCS(=O)(=O)N1CCC(c2cc(Cl)cc3[nH]ncc23)CC1 [Compound 423] | < 3.16 | < 3.16 | 3.24 to 31.6 | < 3.16 |  |  |  | 
CC1(C)CN(c2cc(Cl)cc3[nH]ncc23)CCC12NC(=O)NC2=O (stereo not shown) [Compound 424, 8-(6-chloro-1H-indazol-4-yl)-6,6-dimethyl-1,3,8-triazaspiro[4.5]decane-2,4-dione] | < 3.16 | < 3.16 | < 3.16 | < 3.16 | 0.24 | 0.347 | 0.145 | 0.0759
Cc1nc2c(o1)CN(c1cc(Cl)cc3[nH]ncc13)CC2(C)C [Compound 425] | < 3.16 | > 100 | > 100 | < 3.16 |  |  |  | 
Clc1cc(C2CCOCC2)c2cn[nH]c2c1 [Compound 426] | < 3.16 | 3.24 to 31.6 | > 100 | < 3.16 |  |  |  | 
CC1(C)CCC(O)(c2cc(Cl)cc3[nH]ncc23)CC1 [Compound 427] | 3.24 to 31.6 | > 100 | > 100 | < 3.16 |  |  |  | 
OC1(c2cc(Cl)cc3[nH]ncc23)CCC(F)(F)CC1 [Compound 428] | < 3.16 | 3.24 to 31.6 | 3.24 to 31.6 | < 3.16 |  |  |  | 
Clc1cc(N2CCC(c3ncco3)CC2)c2cn[nH]c2c1 [Compound 429] | < 3.16 | 3.24 to 31.6 | 3.24 to 31.6 | < 3.16 |  |  |  | 
Nc1ccnn1C1CCN(c2cc(Cl)cc3[nH]ncc23)CC1 [Compound 430] | < 3.16 | < 3.16 | > 100 | 3.24 to 31.6 |  |  |  | 
CS(=O)(=O)NC1CN(c2cc(Cl)cc3[nH]ncc23)C1 [Compound 431] | < 3.16 | < 3.16 | > 100 | < 3.16 |  |  |  | 
Cn1ncc2c1CN(c1cc(Cl)cc3[nH]ncc13)CC2 [Compound 432] | < 3.16 | 3.24 to 31.6 | > 100 | < 3.16 |  |  |  | 
Cn1cc2c(n1)CN(c1cc(Cl)cc3[nH]ncc13)CC2 [Compound 433] | < 3.16 | > 100 | > 100 | 3.24 to 31.6 |  |  |  | 
Cc1nc2c(o1)CN(c1cc(C(F)(F)F)cc3[nH]ncc13)CC2(C)C [Compound 434] | < 3.16 | > 100 | > 100 | < 3.16 |  |  |  | 
CN1C(=O)[C@@H]2CC[C@H]1CN(c1cc(Cl)cc3[nH]ncc13)C2 [Compound 435] | < 3.16 | 3.24 to 31.6 | > 100 | < 3.16 |  |  |  | 
